No end group written: not given here.
Key:
[1] = system: osteosarcoma; assay: Compassionate use treatment of an osteosarcoma patient with intranasal peptide (Example 5); assay type: in vivo; details: three times a day
Method: A patient suffering from osteosarcoma was treated under the terms of compassionate use.
The peptide IVRYTKKVPQVS (SEQ ID NO: 21) was provided in a citrate/bicarbonate buffer (Pharmacopoeia Europaea, Ph. Eur.), in a concentration of 1 mg/mL (1 mg of the peptide in 1 mL of the buffer). This composition was administered intranasally as a nasal spray. The nasal spray was administered three times a day (morning, noon, evening), two strokes into each nasal cavity, for six weeks.
The course of the disease/clinical picture of the patient was monitored via an immune panel measurement, once a week. In blood count measurements, the numbers of erythrocytes, thrombocytes, etc. were determined.

[2] = system: childhood sarcomas; details: in vivo; cited from earlier work
[3] = Isoelectric point of the peptide; assay type: physicochemical

Compound: IVRYTKKVPQVS [SEQ ID NO: 21]
- side effects ([1]; 1 mg/mL nasal spray, six weeks): no side effects were observed
- regression of the tumor (MRT measurements) ([1]; 1 mg/mL nasal spray, six weeks, especially in the area of the spine and the vertebral holes): regression of the tumor
- blood picture ([1]; after four weeks of treatment, 1 mg/mL nasal spray in citrate/bicarbonate buffer, two strokes into each nasal cavity): normalized
- pain ([1]; after six weeks of treatment, 1 mg/mL nasal spray, severe pain before start): pain-free
- mobility of the patient ([1]; during six weeks of treatment, 1 mg/mL nasal spray, patient was unable to move before start): restored

Compound: O=P1(N(CCCl)CCCl)NCCCO1 (stereo not shown) [cyclophosphamide]
- anti-tumor efficacy [2]: good anti-tumor efficacy

Compound: LVRYTKKVPQVSTPTL [ALB408-423, LVRYTKKVPQVSTPTL]
- isoelectric point (pI) [3]: 10.3

— US20260325608A1, “PEPTIDES FOR USE IN THE TREATMENT OF SARCOMA” (PHARIS BIOTEC GMBH, priority 2023, published 2026)
